Data as given in patent US8168232B2, “Formulations and methods of using nitric oxide mimetics in cancer treatment” (priority 2000, dated 2012).

What was measured:
[1] = tested on: prostate specific antigen (PSA); experiment: PSA levels in prostate cancer patients on low dose transdermal GTN; assay type: in vivo, human
Description: Patients with prostatic adenocarcinoma were selected for this study because the progression of this type of cancer correlates well with the plasma levels of prostate-specific antigen (PSA). Thus, the outcome of low dose NO mimetic therapy can be easily assessed by measuring PSA levels. […] Plasma PSA levels were measured via a commercially available immunoassay kit such as Immuno 1 (Bayer Corporation).
Methods: Patients with a previous history of prostatectomy that have experienced biochemical failure as per the ASTRO criteria (three successive rises in PSA), PSA<10 (units), stable with sub-clinical disease were included in the study after signing an informed consent. All patients were placed on treatment with continuous low dose transdermal nitroglycerin (˜0.03 mg/hr, 24 hours a day). Subjects returned to the study centre for monthly PSA measurements. Subjects were withdrawn from the study if there was evidence of disease progression or other intervening medical events.

[2] = tested on: soluble guanylyl cyclase (sGC) / cellular cGMP; experiment: cGMP ELISA (sGC activity) in MDA-MB-231 cells; assay type: cell-based, human
Description: The effects of hypoxia and NO-mimetic treatment on sGC levels were determined using Western Blot analysis. To determine sGC activity, cGMP levels were measured. Briefly, cells were extracted over ice in 1 mL of 6% trichloroacetic acid (BDH Laboratory Supplies, Poole, England). The homogenate was then centrifuged at 13,000 g for 10 min. The supernatant fraction was removed and extracted five times with 2 mL of water-saturated diethyl ether (BDH). The cGMP contained in this fraction was subsequently acetylated and quantitated using an enzyme-linked immuno-sorbent assay (ELISA) kit (STI—Signal Transduction Products, San Clemente, Calif.).
To determine the effect of hypoxia on cGMP levels, MDA-MB-231 breast carcinoma cells were incubated in 0.5% O2 for 6 hours in the presence of IBMX (500 μM).

O=[N+]([O-])OCC(CO[N+](=O)[O-])O[N+](=O)[O-] [GTN, glyceryl trinitrate]
plasma PSA levels ([1]; GTN 0.033 mg/hour transdermal patches, recurrent prostatic adenocarcinoma, two patients, within two months): sharp decline | PSA velocity, first two treatment episodes ([1]; one patient, prostate intact, on anti-androgen therapy, GTN 0.03 mg/hour, about one month each): reduction of PSA velocity | PSA levels, third treatment episode ([1]; one patient, prostate intact, GTN 0.03 mg/hour, about one month): decrease in PSA levels | time to PSA decrease with combined radiation therapy ([1]; one patient, chronic transdermal GTN 0.03 mg/hour, radiation alone expected average twelve months): within three months | mean PSA velocity on therapy ([1]; transdermal ~0.03 mg/hr 24 hours a day, 5 or more months of therapy, decreased from 14%/month, post-prostatectomy biochemical failure): 5.4 %/month | drug related adverse events ([1]; transdermal ~0.03 mg/hr, 24 hours a day): No patients experienced drug related adverse events | effect on hypoxic reduction of sGC activity (cGMP ELISA) ([2]; 0.5% O2, 2 hours, GTN (10^−10 M, 10^−6 M)): significantly prevented | effect of hypoxia on accumulated cGMP levels ([2]; GTN 1 μM co-incubation, 0.5% O2 6 hours, IBMX 500 μM): prevented | effect on hypoxic reduction in cGMP levels ([2]; GTN (1 mM) as printed, 6 hrs 0.5% O2, IBMX): completely prevented
